# In PubChem BioAssay AID248 (DTP/NCI, 2004):
# “And” between values parts separate entries of the source, which are not always exact repeats. Equal entries are not always repeated. Inconclusive results and toxic doses are left out.
# Test system: L1210 leukemia ip in BDF1 mice, survival T/C
# Assay: NCI In Vivo Anticancer Drug Screen. Data for tumor model L1210 Leukemia (intraperitoneal) in B6D2F1 (BDF1) mice
# Conditions: endpoint: mean survival time, higher = longer survival
# How it was run: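 Ratio derived from survival: compound-dosed mice over vehicle-dosed mice, all bearing a transplantable tumor.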
# [1] = dose: 400.0 mg/kg/injection, schedule: Q01DX001 (ip), vehicle: carboxymethylcellulose (CMC)
# [2] = dose: 100.0 mg/kg/injection, schedule: Q01DX001 (ip), vehicle: carboxymethylcellulose (CMC)
# [3] = dose: 200.0 mg/kg/injection, schedule: Q01DX001 (ip), vehicle: carboxymethylcellulose (CMC)
# [4] = dose: 25.0 mg/kg/injection, schedule: Q01DX009 (ip), vehicle: Klucel (hydroxypropylcellulose) (HPC)
# [5] = dose: 50.0 mg/kg/injection, schedule: Q01DX009 (ip), vehicle: Klucel (hydroxypropylcellulose) (HPC)
# [6] = dose: 100.0 mg/kg/injection, schedule: Q01DX009 (ip), vehicle: Klucel (hydroxypropylcellulose) (HPC)
# [7] = dose: 100.0 mg/kg/injection, schedule: Q04DX003 (ip), vehicle: saline with Tween-80
# [8] = dose: 200.0 mg/kg/injection, schedule: Q04DX003 (ip), vehicle: saline with Tween-80
# [9] = dose: 400.0 mg/kg/injection, schedule: Q04DX003 (ip), vehicle: saline with Tween-80
# [10] = dose: 100.0 mg/kg/injection, schedule: Q04DX002 (ip), vehicle: saline with Tween-80
# [11] = dose: 200.0 mg/kg/injection, schedule: Q04DX002 (ip), vehicle: saline with Tween-80
compound,measurement,setting,value
Cc1ccc(NC(=O)N(CCCl)N=O)cc1NC(=O)c1ccccc1,T/C,"dose: 0.22 mg/kg/injection, schedule: Q01DX009 (ip), vehicle: carboxymethylcellulose (CMC)",103 % of control
same,T/C,"dose: 0.45 mg/kg/injection, schedule: Q01DX009 (ip), vehicle: carboxymethylcellulose (CMC)",103 % of control
same,T/C,"dose: 1.8 mg/kg/injection, schedule: Q01DX009 (ip), vehicle: carboxymethylcellulose (CMC)",180 % of control
same,T/C,"dose: 2.6 mg/kg/injection, schedule: Q01DX009 (ip), vehicle: carboxymethylcellulose (CMC)",175 % of control
same,T/C,"dose: 3.0 mg/kg/injection, schedule: Q01DX009 (ip), vehicle: carboxymethylcellulose (CMC)",164 % of control
same,T/C,"dose: 4.0 mg/kg/injection, schedule: Q01DX009 (ip), vehicle: carboxymethylcellulose (CMC)",151 % of control
same,T/C,"dose: 6.6 mg/kg/injection, schedule: Q01DX009 (ip), vehicle: carboxymethylcellulose (CMC)",179 % of control
same,T/C,"dose: 10.0 mg/kg/injection, schedule: Q01DX009 (ip), vehicle: carboxymethylcellulose (CMC)",194 % of control
same,T/C,"dose: 15.0 mg/kg/injection, schedule: Q01DX009 (ip), vehicle: carboxymethylcellulose (CMC)",183 % of control
same,T/C,"dose: 23.0 mg/kg/injection, schedule: Q01DX009 (ip), vehicle: carboxymethylcellulose (CMC)",243 % of control
same,T/C,"dose: 34.0 mg/kg/injection, schedule: Q01DX009 (ip), vehicle: carboxymethylcellulose (CMC)",186 % of control
same,T/C,"dose: 52.0 mg/kg/injection, schedule: Q01DX009 (ip), vehicle: carboxymethylcellulose (CMC)",178 % of control
same,T/C,"dose: 78.0 mg/kg/injection, schedule: Q01DX001 (ip), vehicle: Klucel (hydroxypropylcellulose) (HPC)",155 % of control
same,T/C,"dose: 78.0 mg/kg/injection, schedule: Q01DX009 (ip), vehicle: carboxymethylcellulose (CMC)",205 % of control
same,T/C,"dose: 118.0 mg/kg/injection, schedule: Q01DX001 (ip), vehicle: Klucel (hydroxypropylcellulose) (HPC)",159 % of control
same,T/C,"dose: 177.0 mg/kg/injection, schedule: Q01DX001 (ip), vehicle: Klucel (hydroxypropylcellulose) (HPC)",213 % of control
same,T/C,"dose: 266.0 mg/kg/injection, schedule: Q01DX001 (ip), vehicle: carboxymethylcellulose (CMC)",154 % of control
same,T/C,"dose: 266.0 mg/kg/injection, schedule: Q01DX009 (ip), vehicle: carboxymethylcellulose (CMC)",105 % of control
same,T/C,[1],150 % of control and 168 % of control
same,T/C,"dose: 400.0 mg/kg/injection, schedule: Q01DX009 (ip), vehicle: carboxymethylcellulose (CMC)",98 % of control
same,T/C,"dose: 600.0 mg/kg/injection, schedule: Q01DX001 (ip), vehicle: carboxymethylcellulose (CMC)",165 % of control
COc1ccc2c(c1)c1c(C)c3cnccc3c(C)c1n2CCOC(C)=O,T/C,"dose: 12.5 mg/kg/injection, schedule: Q01DX009 (ip), vehicle: saline",107 % of control
same,T/C,"dose: 25.0 mg/kg/injection, schedule: Q01DX009 (ip), vehicle: saline",100 % of control
same,T/C,"dose: 50.0 mg/kg/injection, schedule: Q01DX009 (ip), vehicle: saline",112 % of control
same,T/C,"dose: 100.0 mg/kg/injection, schedule: Q01DX001 (ip), vehicle: saline with Tween-80",88 % of control
same,T/C,"dose: 200.0 mg/kg/injection, schedule: Q01DX001 (ip), vehicle: saline with Tween-80",100 % of control
same,T/C,"dose: 400.0 mg/kg/injection, schedule: Q01DX001 (ip), vehicle: saline with Tween-80",120 % of control
CS(=O)(=O)OCCCc1nc2ccccc2n1S(C)(=O)=O,T/C,[2],110 % of control
same,T/C,[3],110 % of control
same,T/C,[1],104 % of control
O=C(O)CNc1cccnc1,T/C,[4],95 % of control
same,T/C,[5],100 % of control
same,T/C,[6],101 % of control
C[N+]1(CCCNC(=O)Nc2ccc(Cl)cc2)CCOCC1,T/C,"dose: 12.5 mg/kg/injection, schedule: Q04DX002 (ip), vehicle: saline",105 % of control
same,T/C,"dose: 25.0 mg/kg/injection, schedule: Q04DX002 (ip), vehicle: saline",102 % of control
same,T/C,"dose: 50.0 mg/kg/injection, schedule: Q04DX002 (ip), vehicle: saline",97 % of control
O=C(O)/C=C/C=C/c1ccccc1,T/C,[7],97 % of control
same,T/C,[8],92 % of control
same,T/C,[9],106 % of control
CCCCCCCCCCCCCCCC(=O)NCC[N+](CC)(CC)Cc1ccc(C[N+](CC)(CC)CCNC(=O)CCCCCCCCCCCCCCC)cc1,T/C,"dose: 75.0 mg/kg/injection, schedule: Q01DX001 (ip), vehicle: saline",98 % of control
N#CCCNc1ccccc1,T/C,"dose: 100.0 mg/kg/injection, schedule: Q01DX009 (ip), vehicle: saline with Tween-80",95 % of control
same,T/C,[7],103 % of control
same,T/C,"dose: 200.0 mg/kg/injection, schedule: Q01DX009 (ip), vehicle: saline with Tween-80",106 % of control
same,T/C,[8],108 % of control
same,T/C,"dose: 400.0 mg/kg/injection, schedule: Q01DX009 (ip), vehicle: saline with Tween-80",86 % of control
same,T/C,[9],105 % of control
Nc1ncnc(N)c1NC(=O)c1ccc(OCCCOc2ccccc2)c(Cl)c1,T/C,[2],96 % of control
same,T/C,[3],101 % of control
same,T/C,[1],96 % of control
C=CC1(C)C=C2CCC3C(C)(C(=O)O)CCCC3(C)C2CC1 (stereo unspecified),T/C,[10],106 % of control
same,T/C,[11],95 % of control
O=C(CCc1ccccc1)c1ccccc1,T/C,[10],97 % of control
same,T/C,[11],97 % of control
same,T/C,"dose: 400.0 mg/kg/injection, schedule: Q04DX002 (ip), vehicle: saline with Tween-80",90 % of control
O/N=C\c1ccccc1,T/C,[5],92 % of control
same,T/C,[6],86 % of control
O=S(=O)(O)C(O)c1ccc(Cl)cc1Cl (stereo unspecified),T/C,"dose: 100.0 mg/kg/injection, schedule: Q04DX003 (ip), vehicle: saline",102 % of control
same,T/C,"dose: 200.0 mg/kg/injection, schedule: Q04DX003 (ip), vehicle: saline",102 % of control
same,T/C,"dose: 400.0 mg/kg/injection, schedule: Q04DX003 (ip), vehicle: saline",107 % of control
CCOC(=O)C1=C(C(=O)OCC)C2(c3ccccc3)NC1(c1ccccc1)c1ccccc12,T/C,"dose: 100.0 mg/kg/injection, schedule: Q01DX001 (ip), vehicle: saline",101 % of control
same,T/C,"dose: 200.0 mg/kg/injection, schedule: Q01DX001 (ip), vehicle: saline",97 % of control
same,T/C,"dose: 400.0 mg/kg/injection, schedule: Q01DX001 (ip), vehicle: saline",97 % of control
CCCCNC(=O)/C(=C\c1ccccc1)NC(C)=O,T/C,"dose: 3.0 mg/kg/injection, schedule: Q04DX003 (ip), vehicle: DMSO",92 % of control
same,T/C,"dose: 6.0 mg/kg/injection, schedule: Q04DX003 (ip), vehicle: DMSO",92 % of control
same,T/C,"dose: 6.25 mg/kg/injection, schedule: Q01DX009 (ip), vehicle: DMSO",96 % of control
same,T/C,"dose: 12.0 mg/kg/injection, schedule: Q04DX003 (ip), vehicle: DMSO",94 % of control
same,T/C,"dose: 12.5 mg/kg/injection, schedule: Q01DX009 (ip), vehicle: DMSO",93 % of control
same,T/C,"dose: 12.5 mg/kg/injection, schedule: Q04DX003 (ip), vehicle: DMSO",100 % of control
COC(=O)c1cc([N+](=O)[O-])cc([N+](=O)[O-])c1Br,T/C,"dose: 3.0 mg/kg/injection, schedule: Q01DX009 (ip), vehicle: saline with Tween-80",100 % of control
same,T/C,"dose: 6.0 mg/kg/injection, schedule: Q01DX009 (ip), vehicle: saline with Tween-80",98 % of control
same,T/C,"dose: 12.0 mg/kg/injection, schedule: Q01DX009 (ip), vehicle: saline with Tween-80",98 % of control
same,T/C,"dose: 12.5 mg/kg/injection, schedule: Q01DX009 (ip), vehicle: Klucel (hydroxypropylcellulose) (HPC)",96 % of control
same,T/C,"dose: 12.5 mg/kg/injection, schedule: Q04DX003 (ip), vehicle: Klucel (hydroxypropylcellulose) (HPC)",100 % of control
same,T/C,[4],89 % of control
same,T/C,"dose: 25.0 mg/kg/injection, schedule: Q04DX003 (ip), vehicle: Klucel (hydroxypropylcellulose) (HPC)",94 % of control
same,T/C,"dose: 50.0 mg/kg/injection, schedule: Q04DX003 (ip), vehicle: Klucel (hydroxypropylcellulose) (HPC)",94 % of control
